Earlier results, collected in US9426985B2, “Compositions and methods to modulate the rate of EBIS production from dithiocarbamate fungicides” (Dow Agrosciences LLC, priority 2012, dated 2016).

Key:
[1] = tomato leaves

Compound	time to peak EBIS levels after application [1]	half-life on the leaf surface
mancozeb	about two	–
S=C1SSC2=NCCN12 [EBIS, ethylene bisisthiocyanate sulfide]	–	less than 2 days
